Results as given in PubChem BioAssay (NCI).
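Tested at 5 concentrations; 48 h exposure; 96-well plates; endpoints linearly interpolated, else capped at highest concentration. The concentration for 50% growth inhibition is given as GI50. TGI is the concentration that stops growth completely.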

Tests used:
Experiment in all cases: DTP human tumour cell line panel, 48 h
[1] = tested on: CCRF-CEM leukemia
[2] = tested on: HL-60(TB) leukemia
[3] = tested on: HOP-62 NSCLC
[4] = tested on: HT29 colon
[5] = tested on: MCF7 breast
[6] = tested on: MOLT-4 leukemia
[7] = tested on: NCI-H226 lung
[8] = tested on: OVCAR-5 ovarian
[9] = tested on: SW-620 colon
[10] = tested on: T-47D breast

Row | Structure (SMILES) | GI50 [1] [µM] | TGI [1] [µM] | GI50 [2] [µM] | TGI [2] [µM] | GI50 [3] [µM] | TGI [3] [µM] | GI50 [4] [µM] | TGI [4] [µM] | GI50 [5] [µM] | TGI [5] [µM] | GI50 [6] [µM] | TGI [6] [µM] | GI50 [7] [µM] | GI50 [8] [µM] | TGI [8] [µM] | GI50 [9] [µM] | TGI [9] [µM] | GI50 [10] [µM] | TGI [10] [µM] | TGI [7] [µM]
1 | COc1ccc(/C=C/C(=O)c2cc3c(N)c(C(=O)Nc4ccc(OC)cc4)sc3nc2C)cc1 | 0.567 | > 50 | 0.323 | 2.22 | 0.214 | > 50 | 0.404 | > 28.4 | 0.0644 | > 50 | 0.697 | > 50 | 0.0872 | 0.299 | > 50 | 0.543 | > 50 | 0.403 | > 50 | 
2 | Cc1ccc(OC(=O)N2C/C(=C\c3ccccc3)C(=O)/C(=C/c3ccccc3)C2)cc1 |  | 16.3 |  | 15.6 |  | 38.7 |  | 35.6 |  | 56 |  | 18.5 |  |  | > 100 |  | 35.6 |  | > 100 | > 100
3 | COc1ccc2c(c1)C(=O)c1c-2c(OCCN(C)C)nc2cc(OC)c(OC)cc12 | 0.0714 | 3.91 | 51.6 | > 100 | 1.32 | 32 | 1.76 | 18.1 | 0.271 | 14.9 | 0.197 | > 100 | 2.95 | 23.7 | 55.9 | 0.476 | 16.9 | > 100 | > 100 | 22.1
4 | C[C@@H]1CCc2ncc(F)cc2[C@H]2CCCN2c2ccn3ncc(c3n2)C(=O)N1 | > 100 | > 100 | > 100 | > 100 | 60 | > 100 | 68.3 | > 100 | 53.1 | > 100 | 36.1 | > 100 | 28.3 | > 100 | > 100 | > 100 | > 100 | 86.1 | > 100 | > 100
5 | CC1(C)C2CCC13C(=O)C1OC3(C2)C2C(=O)c3c(ccc4c3ccc3ccccc34)C(=O)C12 (stereo not given) | 21.5 | > 62.9 |  | 11.1 | > 100 | > 100 | > 64.6 | > 100 | 31.6 | > 75.9 | 1.1 | 10.6 | > 100 | > 100 | > 100 | 56.5 | > 100 | 48 | > 100 | > 100
6 | CC(O)[C@H](NC(=O)N[C@@H](CC(N)=O)c1nc(N2CCNCC2)no1)C(=O)O (stereo not given in full) | > 100 | > 100 | > 100 | > 100 | > 100 | > 100 | > 100 | > 100 | > 100 | > 100 | > 100 | > 100 | > 100 | > 100 | > 100 | > 100 | > 100 | > 100 | > 100 | > 100
7 | CCn1c(-c2nonc2N)nc2cnc(Oc3cccc(NC(=O)c4ccc(N(C)C)cc4)c3)cc21 | 1.82 | > 25 | > 25 | > 25 | > 25 | > 25 | > 25 | > 25 | > 25 | > 25 | 13.6 | > 25 | > 25 | > 25 | > 25 | > 25 | > 25 | 9.62 | > 25 | > 25
8 | COc1cc2cc(Oc3cccc(NC(=O)Nc4cc(C(F)(F)F)cc(C(F)(F)F)c4)c3)c(C)nc2cc1OC | 0.641 | 3.47 | 1.58 | 4.37 | 1.35 | 2.88 | 1.52 | 3.46 | 0.544 | 2.36 | 1.13 | 4.04 | 1.8 | 1.93 | 4.14 | 1.94 | 5.71 | 1.48 | 5.67 | 3.91
9 | COc1cccc(-c2nc3sccn3c2-c2ccnc(NCCCNS(=O)(=O)c3ccccc3)c2)c1 | 2.73 | > 100 | 2.33 | 5.63 | 3.43 | > 100 | 3.23 | > 100 | 3.83 | > 100 | 2.25 | 7.04 | 2.92 | 5.45 | > 100 | 3.81 | > 100 | 1.73 | 6.24 | > 100
10 | COc1ccc(C2NC(=S)NC3=C2CCOc2c3ccc3ccccc23)cc1 (stereo not given) | > 100 | > 100 | 23.4 | > 100 | > 100 | > 100 | 36.6 | > 100 | 5.32 | > 100 | 87.1 | > 100 | 58.5 | > 100 | > 100 | > 100 | > 100 | 8.5 | > 100 | > 100
11 | CCOC(=O)c1c(CN2CCN(C)CC2)nc2ccc(Cl)cc2c1-c1ccccc1 | 7.17 | 28.9 | 2.2 | 6.22 | 11.2 | 25 | 2.28 | 6.16 | 4.15 | 16.6 | 2.92 | 12.9 | 15.6 | 10.8 | 25 | 9.35 | 21.6 | 9.41 | 24.4 | 34.9
12 | COc1ccc2c(c1OC)O/C(=C\c1ncc([N+](=O)[O-])n1C)C2=O | 0.297 | 2.83 | 0.834 |  | 3.67 | 17.4 | 0.836 | 5.02 | 2.06 | > 27.8 | 0.266 |  | 7.29 | 2.82 | 12.5 | 0.385 |  | > 70.9 | > 100 | 50.8
